In ChEMBL document CHEMBL4321874 (J Med Chem, 2020):
Values belong to the compound of their own block, whether it stands above or below them.

Tests used:
[1] = Drug metabolism assessed as (4bS)-2-(3-Methyl-1H-pyrazol-4-yl)-5,6,7,8-tetrahydropyrido-[1',2':3,4]imidazo[1,5-a]thieno[3,2-d]pyrimidin-12(4bH)-one formaldehyde adduct formation by measuring retention time at 5 nmol after 30 mins in presence of excess formaldehyde by QTOF-UPLC analysis; type: physicochemical; conditions: 0.5 h
[2] = Toxicity in BALB/c mouse xenografted with human COLO205 cells assessed as effect on body weight at 50 to 100 mg/kg , po adminstered BID for 14 days and measured every 2 to 3 days; type: organism-based; conditions: in vivo
[3] = target: T1, Cell division cycle 7-related protein kinase (Homo sapiens, UniProt O00311); assay: Inhibition of CDC7 in human HeLa cells assessed as inhibition of MCM2 phosphorylation at Ser40 residue in human HeLa cells after 7 hrs by Western blot analysis; type: cell-based
[4] = system: COLO 205; assay: Antitumour activity against human COLO205 cells xenografted in Balb/c mouse assessed as inhibition of tumor growth at 50 to 100 mg/kg, po administered BID for 14 days and measured every 2 to 3 days relative to untreated control; type: functional
[5] = target: Homeodomain-interacting protein kinase 4 (Homo sapiens, UniProt Q8NE63); assay: Inhibition of recombinant full-length human N-terminal GST-tagged HIPK4 expressed in baculovirus expression system by Z'-LYTE assay
[6] = target: T1, Cell division cycle 7-related protein kinase; assay: Inhibition of ATP-specific reporter probe binding to CDC7 (unknown origin) assessed as equilibrium dissociation constant incubated for 60 mins by proteros reporter displacement assay
[7] = target: Cyclin-dependent kinase 2/cyclin E1 (Homo sapiens, UniProt P24941); assay: Inhibition of N-terminal GST-tagged full-length human CDK2 (1 to 298 residues)/Cyclin E (1 to 410 residues) expressed in baculovirus expression system using histone H1 as susbtrate after 90 mins by Kinase-Glo luminescence assay
[8] = target: Death-associated protein kinase 1 (Homo sapiens, UniProt P53355); assay: Inhibition of recombinant human N-terminal GST-tagged DAPK1 catalytic domain (1 to 363 residues) expressed in baculovirus expression system by Adapta kinase assay
[9] = system: Mus musculus; assay: In vivo inhibition of CDC7 in BALB/c mouse xenografted with human COLO205 cells assessed as reduction in MCM2 phosphorylation at Ser40/41 residue in tumor at 100 mg/kg, po after 4 hrs by Western blot analysis; type: functional; conditions: COLO 205, po
[10] = target: Dual specificity tyrosine-phosphorylation-regulated kinase 1A (Homo sapiens, UniProt Q13627); assay: Inhibition of recombinant full-length human GST-tagged DYRK1A expressed in baculovirus expression system by Z'-LYTE assay
[11] = target: Dual specificity tyrosine-phosphorylation-regulated kinase 1B (Homo sapiens, UniProt Q9Y463); assay: Inhibition of recombinant full-length human GST-tagged DYRK1B expressed in baculovirus expression system by Z'-LYTE assay
[12] = target: T2, CDC7/DBF4 (Cell division cycle 7-related protein kinase/Activator of S phase kinase) (Homo sapiens, UniProt O00311); assay: Inhibition of N-terminal GST-fused full-length human CDC7 (1 to 574 end residues)/DBF4 (1 to 674 residues) expressed in baculovirus expression system using MCM2 as substrate in presence of 50 uM ATP by HTRF transcreener ADP assay
[13] = target: Myotonin-protein kinase (Homo sapiens, UniProt Q09013); assay: Inhibition of kinase tracer 236 binding to recombinant full-length human GST-tagged DMPK expressed in baculovirus expression system by Lanthascreen Eu kinase binding assay
[14] = Cmax in mouse at 10 mg/kg, po dosed via cassette dosing; type: ADME, organism-based; set-up: dose 10 mg/kg, route oral; conditions: in vivo
[15] = target: Dual specificity protein kinase CLK1 (Homo sapiens, UniProt P49759); assay: Inhibition of recombinant human GST-tagged CLK1 catalytic domain (129 to 484 residues) expressed in Escherichia coli by Z'-LYTE assay
[16] = AUC(0 to 8 hrs) in mouse at 10 mg/kg, po dosed via cassette dosing; type: ADME, organism-based; set-up: time < 6 hr, dose 10 mg/kg, route oral; conditions: in vivo
[17] = target: Rho-associated protein kinase 1 (Homo sapiens, UniProt Q13464); assay: Inhibition of N-terminal GST-tagged human ROCK1 catalytic domain (1 to 477 residues) expressed in baculovirus expression system using biotin-STK-substrate 2 as substrate preincubated with enzyme for 5 mins followed by ATP addition and measured after 2 hrs by TR-FRET assay
[18] = target: T2, CDC7/DBF4 (Cell division cycle 7-related protein kinase/Activator of S phase kinase); assay: Inhibition of N-terminal GST-fused full-length human CDC7 (1 to 574 end residues)/DBF4 (1 to 674 residues) expressed in baculovirus expression system using MCM2 as substrate preincubated with enzyme for 10 mins prior to 1 uM ATP addition by HTRF transcreener ADP assay
[19] = target: T2, CDC7/DBF4 (Cell division cycle 7-related protein kinase/Activator of S phase kinase); assay: Inhibition of N-terminal GST-fused full-length human CDC7 (1 to 574 end residues)/DBF4 (1 to 674 residues) expressed in baculovirus expression system using MCM2 as substrate preincubated with enzyme for 60 mins prior to 50 uM ATP addition by HTRF transcreener ADP assay
[20] = target: CDK8/Cyclin C (Homo sapiens, UniProt P49336); assay: Inhibition of kinase tracer 236 binding to recombinant full-length human His-tagged CDK8/CyclinC expressed in baculovirus expression system by Lanthascreen Eu kinase binding assay
[21] = system: COLO 205; assay: Antiproliferative activity against human COLO205 cells assessed as reduction in cell growth after 3 days by CellTiter-Glo luminescence assay; type: functional, cell-based; conditions: COLO 205, 72 h

Structure (SMILES): Cc1n[nH]cc1-c1cc2nc([C@@H]3CCCCN3)[nH]c(=O)c2s1
Retention_time [1]: 4.31 min

IC50 [3]: 36 nM | IC50 [5]: 176 nM | Kd [6]: 1.96 nM | IC50 [7]: 6500 nM | IC50 [10]: 59 nM | IC50 [11]: 78.6 nM | IC50 [12]: 120 nM | IC50 [13]: 64.6 nM | Cmax [14]: 978 ng/mL | IC50 [15]: 310 nM | AUC(0-t) at 6 h [16]: 1350 ng·h/mL | IC50 [17]: 420 nM | IC50 [18]: 0.44 nM | IC50 [19]: 0.41 nM | IC50 [20]: 351 nM | EC50 [21]: 130 nM
Structure (SMILES): Cc1n[nH]cc1-c1cc2nc([C@@H]3CCCCN3)[nH]c(=O)c2s1.Cl.Cl
Activity [2]: Non-Toxic | T/C [4]: 6% | IC50 [8]: 203 nM | inhibition in vivo at 100 mg/kg [9]: 72%
